These results are taken from patent publication US7709526B2, “Use of cyclolignans and new cyclolignans” (Biovitrum AB, priority 2001, dated 2010).

Data set [1] relates to malignant cells. Description: Cell death in malignant cells. It counts as cell-based.
For data set [2], the target named is IGF-1R (Homo sapiens, UniProt P08069). Description: Effect on IGF-1R (method not given).
For data set [3], the system named is rats. Conditions: relative to podophyllotoxin; cited from earlier work.
Data set [4] deals with microtubuli. To be noted: relative to podophyllotoxin; cited from earlier work.
Data set [5] addresses isolated IGF-1R kinase (Homo sapiens, UniProt P08069). To be noted: cited from earlier work.
Data set [6] deals with insulin receptor kinase (Homo sapiens, UniProt P06213). Conditions: cited from earlier work.
Sequence of insulin receptor kinase (P06213 28-1382): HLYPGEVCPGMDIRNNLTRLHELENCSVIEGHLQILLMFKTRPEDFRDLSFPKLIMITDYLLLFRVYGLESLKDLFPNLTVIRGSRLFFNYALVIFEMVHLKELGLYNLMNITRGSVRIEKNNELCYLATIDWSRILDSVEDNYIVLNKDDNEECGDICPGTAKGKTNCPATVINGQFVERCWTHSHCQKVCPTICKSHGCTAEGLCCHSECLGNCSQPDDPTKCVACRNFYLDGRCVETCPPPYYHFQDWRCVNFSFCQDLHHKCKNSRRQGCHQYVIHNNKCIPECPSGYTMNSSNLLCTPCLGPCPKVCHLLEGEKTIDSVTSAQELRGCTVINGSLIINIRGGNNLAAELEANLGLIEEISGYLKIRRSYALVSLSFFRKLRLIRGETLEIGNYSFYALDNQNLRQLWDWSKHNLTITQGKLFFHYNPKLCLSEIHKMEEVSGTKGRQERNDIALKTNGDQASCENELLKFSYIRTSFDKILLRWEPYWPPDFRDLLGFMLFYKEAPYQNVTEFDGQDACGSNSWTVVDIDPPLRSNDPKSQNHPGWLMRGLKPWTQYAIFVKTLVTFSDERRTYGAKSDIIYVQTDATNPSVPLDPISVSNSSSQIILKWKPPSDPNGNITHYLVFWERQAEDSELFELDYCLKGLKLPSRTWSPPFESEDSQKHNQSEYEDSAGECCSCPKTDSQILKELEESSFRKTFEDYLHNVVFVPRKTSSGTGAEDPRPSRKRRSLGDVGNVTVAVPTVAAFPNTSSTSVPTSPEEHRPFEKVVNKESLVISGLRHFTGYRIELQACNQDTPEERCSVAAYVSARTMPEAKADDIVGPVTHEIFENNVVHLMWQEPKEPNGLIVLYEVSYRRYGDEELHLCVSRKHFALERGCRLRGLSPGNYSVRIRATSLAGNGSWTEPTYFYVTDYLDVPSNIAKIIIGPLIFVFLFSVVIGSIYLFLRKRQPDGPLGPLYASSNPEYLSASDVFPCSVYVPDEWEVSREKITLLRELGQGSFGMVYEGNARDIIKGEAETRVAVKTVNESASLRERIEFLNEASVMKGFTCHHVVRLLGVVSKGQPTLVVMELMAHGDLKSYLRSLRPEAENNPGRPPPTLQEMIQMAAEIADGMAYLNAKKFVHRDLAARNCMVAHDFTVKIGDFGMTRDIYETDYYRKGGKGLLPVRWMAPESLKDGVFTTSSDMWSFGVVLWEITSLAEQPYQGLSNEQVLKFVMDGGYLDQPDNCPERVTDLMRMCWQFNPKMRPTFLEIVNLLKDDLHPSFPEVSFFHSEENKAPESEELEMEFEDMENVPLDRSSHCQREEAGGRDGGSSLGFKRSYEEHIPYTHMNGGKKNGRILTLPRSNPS

The structures appear in SMILES notation.

Sequence of IGF-1R (P08069 31-1367, species assumed): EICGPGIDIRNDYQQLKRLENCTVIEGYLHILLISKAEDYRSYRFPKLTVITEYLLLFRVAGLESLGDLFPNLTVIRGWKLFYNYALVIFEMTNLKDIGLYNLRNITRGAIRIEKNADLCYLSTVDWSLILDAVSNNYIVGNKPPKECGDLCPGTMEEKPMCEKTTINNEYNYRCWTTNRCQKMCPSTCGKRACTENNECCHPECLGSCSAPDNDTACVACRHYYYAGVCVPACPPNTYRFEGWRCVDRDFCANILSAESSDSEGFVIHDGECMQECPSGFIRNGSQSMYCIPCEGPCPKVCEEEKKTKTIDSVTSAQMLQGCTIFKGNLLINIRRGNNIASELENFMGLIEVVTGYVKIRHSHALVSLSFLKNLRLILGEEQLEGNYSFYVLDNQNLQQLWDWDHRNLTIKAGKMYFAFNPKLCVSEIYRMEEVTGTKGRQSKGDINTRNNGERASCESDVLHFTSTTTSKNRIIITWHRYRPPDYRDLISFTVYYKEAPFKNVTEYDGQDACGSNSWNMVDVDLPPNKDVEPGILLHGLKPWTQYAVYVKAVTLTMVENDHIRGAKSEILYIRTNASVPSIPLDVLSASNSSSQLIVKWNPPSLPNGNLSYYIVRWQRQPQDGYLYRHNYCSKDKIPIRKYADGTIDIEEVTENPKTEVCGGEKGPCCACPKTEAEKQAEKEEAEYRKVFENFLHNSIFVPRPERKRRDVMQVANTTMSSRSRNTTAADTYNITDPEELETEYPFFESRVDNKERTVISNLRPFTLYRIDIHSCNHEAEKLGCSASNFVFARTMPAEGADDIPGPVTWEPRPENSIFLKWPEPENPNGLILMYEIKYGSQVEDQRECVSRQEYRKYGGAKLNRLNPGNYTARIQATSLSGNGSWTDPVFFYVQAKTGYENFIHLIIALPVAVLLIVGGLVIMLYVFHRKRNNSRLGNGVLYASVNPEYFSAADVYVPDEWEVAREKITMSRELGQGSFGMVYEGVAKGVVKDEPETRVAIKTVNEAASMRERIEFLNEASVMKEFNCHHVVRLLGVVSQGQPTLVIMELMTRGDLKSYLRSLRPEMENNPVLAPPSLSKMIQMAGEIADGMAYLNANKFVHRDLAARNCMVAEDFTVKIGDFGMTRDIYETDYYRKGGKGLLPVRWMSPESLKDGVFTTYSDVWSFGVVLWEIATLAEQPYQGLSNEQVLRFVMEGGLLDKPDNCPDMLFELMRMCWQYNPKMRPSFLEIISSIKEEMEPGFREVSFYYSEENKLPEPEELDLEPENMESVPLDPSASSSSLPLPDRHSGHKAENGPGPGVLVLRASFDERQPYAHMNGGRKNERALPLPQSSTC
Sequence of isolated IGF-1R kinase (P08069 31-1367): as the sequence (P08069 31-1367, species assumed) above

Take `COc1cc([C@@H]2c3cc4c(cc3[C@H](O)[C@H]3COC(=O)[C@@H]23)OCO4)cc(OC)c1OC` [picropodophyllin]: the “cell death in malignant cells (in words)” value in data set [1] is “equipotent to podophyllotoxin”. In data set [2], the “effect on IGF-1R / inhibition of IGF-1R activity (in words)” value is on record as “equipotent to podophyllotoxin”. The “LD50 in rats, fold higher than podophyllotoxin” value in data set [3] is reported as “more than 35 fold”. For the same compound, in data set [4], the “affinity for microtubuli, fold lower than podophyllotoxin” value is recorded as 50 fold.

Turning to `N#C/C(=C\c1ccc(O)c(O)c1)C(=O)c1ccc(O)c(O)c1` [tyrphostin AG 538], the IC50 (in general, the concentration that inhibits the measured activity by half) in data set [5] is 0.4 µM. Besides, the “effect on insulin receptor kinase” value in data set [6] was “also blocked the insulin receptor kinase”.
